Tests used:
[1] = system: 23132-87 (Gastric Carcinoma); experiment: combination Emax (second highest fraction inhibited in the dose matrix, 72 h); higher = more inhibition; extreme values may be limits of the assay
Summary of the method: (§1)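 Bliss excess equals the observed combination effect minus the expected value EA + EB − EA·EB, where EA and EB are the effects of each agent alone. Combination Emax is the second-highest inhibition within the matrix. Inhibition was scaled from CellTiter-Glo 2.0 luminescence, with 0 set by vehicle wells and 1 by blank wells, after 72 hours of two-drug dosing of cells plated in 1536-well plates.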

[2] = system: PC-3_[JPC-3] (Lung Adenocarcinoma); experiment: as above
Summary of the method: as §1

[3] = system: CAL-120 (Breast Carcinoma); experiment: as above
Summary of the method: as §1

[4] = system: OPM-2 (Plasma Cell Myeloma); experiment: Bliss excess, mean over the matrix (fraction); higher = more synergy
Summary of the method: as §1

[5] = system: SU-DHL-10 (B-Cell Non-Hodgkin's Lymphoma); experiment: as above
Summary of the method: as §1

WM793B (Melanoma) = experiment: as above
Summary of the method: as §1

[6] = system: PANC-03-27 (Pancreatic Carcinoma); experiment: as above
Summary of the method: as §1

[7] = system: HEC-1 (Endometrial Carcinoma); experiment: as above
Summary of the method: as §1

[8] = system: FADU (Head and Neck Carcinoma); experiment: as above
Summary of the method: as §1

[9] = system: COLO-680N (Esophageal Squamous Cell Carcinoma); experiment: as above
Summary of the method: as §1

[10] = system: LB996-RCC (Kidney Carcinoma); experiment: as above
Summary of the method: as §1

[11] = system: KE-37 (T-Lymphoblastic Leukemia); experiment: as above
Summary of the method: as §1

[12] = system: PC-3_[JPC-3] (Lung Adenocarcinoma); experiment: as above
Summary of the method: as §1

[13] = system: SK-PN-DW (Other Solid Carcinomas); experiment: as above
Summary of the method: as §1

[14] = system: OAW-42 (Ovarian Carcinoma); experiment: as above
Summary of the method: as §1

[15] = system: REH (B-Lymphoblastic Leukemia); experiment: as above
Summary of the method: as §1

LN-229 (Glioblastoma) = experiment: as above
Summary of the method: as §1

[16] = system: HSC-39 (Gastric Carcinoma); experiment: as above
Summary of the method: as §1

SF268 (Low Grade Glioma) = experiment: as above
Summary of the method: as §1

[17] = system: CAL-120 (Breast Carcinoma); experiment: as above
Summary of the method: as §1

Row | SMILES | combination Emax [1] | combination Emax [2] | combination Emax [3] | Bliss excess [4] | Bliss excess [5] | Bliss excess (WM793B (Melanoma)) | Bliss excess [6] | Bliss excess [7] | Bliss excess [8] | Bliss excess [9] | Bliss excess [10] | Bliss excess [11] | Bliss excess [12] | Bliss excess [13] | Bliss excess [14] | Bliss excess [15] | Bliss excess (LN-229 (Glioblastoma)) | Bliss excess [16] | Bliss excess (SF268 (Low Grade Glioma)) | Bliss excess [17]
1 | COc1nnc2ccc(N3CCC(c4ccc(OCCN5CCN(C)C(=O)[C@H]5C)cc4)CC3)nn12 [AZD5153] + Cc1c2c(nn1C)CSCc1cc(n(C)n1)CSc1cc(c3ccccc3c1)OCCCc1c(C(=O)O)n(C)c3c-2c(Cl)ccc13 [AZD5991] (first compound max 1 µM, 7x7, partner max 1 µM) | 0.87 | 0.39 | 0.403 | -0.0062 | -0.03 | -0.0303 | -0.0183 | 0.0132 | -0.0366 | -0.0205 | 0.0015 | 0.116 | -0.0149 | 0.0472 | 0.0444 | -0.0621 | 0.0175 | 0.0135 | 0.0097 | 0.0048
2 | COc1nnc2ccc(N3CCC(c4ccc(OCCN5CCN(C)C(=O)[C@H]5C)cc4)CC3)nn12 [AZD5153] + Cn1cnc2c(F)c(Nc3ccc(Br)cc3Cl)c(C(=O)NOCCO)cc21 [Selumetinib] (first compound max 1 µM, 7x7, partner max 10 µM) | 0.2 | 0.525 | 0.479 | -0.0136 | 0.0107 | -0.074 | 0.0131 | -0.0115 | -0.015 | 0.0131 | -0.0728 | -0.0459 | 0.0189 | -0.0326 | 0.02 | -0.0495 | -0.0426 | -0.0013 | -0.0504 | 0.0386
3 | Cc1c2c(nn1C)CSCc1cc(n(C)n1)CSc1cc(c3ccccc3c1)OCCCc1c(C(=O)O)n(C)c3c-2c(Cl)ccc13 [AZD5991] + C1CN(CCC1(C(=O)N[C@@H](CCO)C2=CC=C(C=C2)Cl)N)C3=NC=NC4=C3C=CN4 [Capivasertib] (first compound max 1 µM, 7x7, partner max 3 µM) | 0.934 | 0.203 | 0.256 | -0.0121 | -0.0047 | 0.0045 | 0.002 | -0.025 | 0.0213 | -0.0223 | 0.0013 | -0.0409 | -0.0062 | 0.032 | 0.0312 | -0.0557 | 0.0178 | 0.0308 | -0.008 | 0.0424
4 | Cc1c2c(nn1C)CSCc1cc(n(C)n1)CSc1cc(c3ccccc3c1)OCCCc1c(C(=O)O)n(C)c3c-2c(Cl)ccc13 [AZD5991] + C=CCn1c(=O)c2cnc(Nc3ccc(N4CCN(C)CC4)cc3)nc2n1-c1cccc(C(C)(C)O)n1 [AZD1775] (first compound max 1 µM, partner max 1 µM) | 0.96 | 0.466 | 0.405 | -0.0119 | 0.0259 | 0.0054 | 0.0186 | 0.0192 | -0.0016 | 0.0254 | -0.008 | 0.0334 | 0.005 | -0.0212 | 0.0001 | -0.112 | 0.0754 | 0.0058 | 0.0045 | -0.0143
5 | Cc1c2c(nn1C)CSCc1cc(n(C)n1)CSc1cc(c3ccccc3c1)OCCCc1c(C(=O)O)n(C)c3c-2c(Cl)ccc13 [AZD5991] + CC1(C)CCC(CN2CCN(c3ccc(C(=O)NS(=O)(=O)c4ccc(NCC5CCOCC5)c([N+](=O)[O-])c4)c(Oc4cnc5[nH]ccc5c4)c3)CC2)=C(c2ccc(Cl)cc2)C1 [Venetoclax] (first compound max 1 µM, 7x7, partner max 1 µM) | 0.903 | 0.254 | 0.121 | 0.0217 | -0.0173 | -0.0016 | -0.0397 | -0.0543 | -0.0231 | -0.0255 | -0.0251 | 0.0273 | -0.0503 | 0.0206 | 0.0028 | 0.206 | -0.0271 | 0.0266 | -0.0096 | -0.0284
6 | Cc1c2c(nn1C)CSCc1cc(n(C)n1)CSc1cc(c3ccccc3c1)OCCCc1c(C(=O)O)n(C)c3c-2c(Cl)ccc13 [AZD5991] + CCN(CCO)CCCOc1ccc2c(Nc3cc(CC(=O)Nc4cccc(F)c4)[nH]n3)ncnc2c1 [AZD2811] (first compound max 1 µM, 7x7, partner max 1 µM) | 0.924 | 0.274 | 0.21 | 0.0578 | -0.0133 | 0.0264 | 0.0566 | 0.0547 | 0.132 | 0.007 | -0.0388 | 0.0133 | -0.0049 | 0.0869 | 0.0173 | 0.0422 | 0.0043 | 0.0233 | 0.0835 | -0.0077
7 | Cc1c2c(nn1C)CSCc1cc(n(C)n1)CSc1cc(c3ccccc3c1)OCCCc1c(C(=O)O)n(C)c3c-2c(Cl)ccc13 [AZD5991] + CN(C)CCCOc1ccc(-c2ccc3ncc4c(c3c2)n(C2CCOCC2)c(=O)n4C)cn1 [AZD0156] (first compound max 1 µM, 7x7, partner max 1 µM) | 0.934 | 0.279 | 0.171 | -0.0241 | -0.0258 | -0.0312 | -0.0201 | -0.0025 | 0.0409 | 0.0049 | -0.0569 | 0.0257 | -0.0156 | -0.0117 | 0.0454 | -0.0321 | 0.0024 | -0.0201 | 0.0324 | -0.036
8 | Cc1c2c(nn1C)CSCc1cc(n(C)n1)CSc1cc(c3ccccc3c1)OCCCc1c(C(=O)O)n(C)c3c-2c(Cl)ccc13 [AZD5991] + C[C@@H]1COCCN1C2=NC(=NC(=C2)C3(CC3)[S@](=N)(=O)C)C4=C5C=CNC5=NC=C4 [AZD6738] (first compound max 1 µM, 7x7, partner max 10 µM) | 0.979 | 0.37 | 0.413 | 0.0291 | -0.0128 | 0.0503 | 0.0059 | 0.0258 | 0.0284 | 0.0186 | 0.0301 | 0.0338 | 0.0547 | -0.0175 | 0.0046 | -0.0519 | 0.0344 | -0.0026 | 0.0188 | 0.0621
9 | Cc1c2c(nn1C)CSCc1cc(n(C)n1)CSc1cc(c3ccccc3c1)OCCCc1c(C(=O)O)n(C)c3c-2c(Cl)ccc13 [AZD5991] + C[C@@H](Nc1cc(F)cc(F)c1)c1cc(C(=O)N(C)C)cc2c(=O)cc(N3CCOCC3)oc12 [AZD8186] (first compound max 1 µM, 7x7, partner max 3 µM) | 0.867 | 0.348 | 0.218 | -0.0104 | 0.0239 | 0.0512 | -0.0432 | -0.0143 | 0.0315 | 0.0001 | 0.0208 | -0.0459 | 0.0031 | 0.0126 | 0.0262 | -0.024 | -0.0063 | -0.0069 | -0.0095 | -0.0318
10 | Cc1c2c(nn1C)CSCc1cc(n(C)n1)CSc1cc(c3ccccc3c1)OCCCc1c(C(=O)O)n(C)c3c-2c(Cl)ccc13 [AZD5991] + Cc1cc2ncnn2cc1Nc1ncc2c(n1)n(C1CCOCC1)c(=O)n2C [AZD7648] (first compound max 1 µM, 7x7, partner max 10 µM) | 0.887 | 0.289 | 0.252 | -0.0357 | 0.0328 | -0.024 | -0.0286 | -0.0375 | -0.0003 | -0.0177 | -0.0662 | -0.0059 | -0.0306 | -0.0404 | -0.0419 | -0.0082 | -0.0525 | 0.0095 | 0.0006 | -0.0059
11 | Cc1c2c(nn1C)CSCc1cc(n(C)n1)CSc1cc(c3ccccc3c1)OCCCc1c(C(=O)O)n(C)c3c-2c(Cl)ccc13 [AZD5991] + Cn1cnc2c(F)c(Nc3ccc(Br)cc3Cl)c(C(=O)NOCCO)cc21 [Selumetinib] (first compound max 1 µM, 7x7, partner max 3 µM) | 0.903 | 0.269 | 0.167 | 0.0231 | -0.021 | -0.0053 | -0.0414 | -0.0318 | 0.0722 | -0.0091 | 0.0053 | 0.0278 | -0.0477 | -0.0271 | 0.0218 | -0.0302 | 0.0485 | 0.0118 | -0.0199 | -0.0105
12 | NC1(C(=O)N[C@@H](CCO)c2ccc(Cl)cc2)CCN(c2ncnc3[nH]ccc23)CC1 [Capivasertib] + CC(=O)c1c(C)c2cnc(Nc3ccc(N4CCNCC4)cn3)nc2n(C2CCCC2)c1=O [Palbociclib] (first compound max 10 µM, 7x7, partner max 10 µM) | 0.428 | 0.398 | 0.561 | 0.0472 | 0.0478 | -0.0375 | -0.0187 | -0.0115 | -0.0259 | -0.0467 | 0.0312 | 0.0024 | 0.002 | -0.0603 | -0.0305 | 0.0022 | -0.0387 | 0.0906 | -0.055 | -0.0221
13 | NC1(C(=O)N[C@@H](CCO)c2ccc(Cl)cc2)CCN(c2ncnc3[nH]ccc23)CC1 [Capivasertib] + CC(C)n1c(=O)n(C)c2cnc3cc(F)c(-c4ccc(OCCCN5CCCCC5)nc4)cc3c21 [AZD1390] (first compound max 10 µM, 7x7, partner max 0.3 µM) | 0.165 | 0.176 | 0.454 | -0.0346 | 0.0402 | -0.0826 | 0.0162 | -0.0453 | -0.0562 | -0.0403 | -0.0871 | -0.0392 | -0.0982 | -0.0892 | -0.0171 | -0.135 | -0.0755 | 0.0112 | -0.0398 | -0.086
14 | NC1(C(=O)N[C@@H](CCO)c2ccc(Cl)cc2)CCN(c2ncnc3[nH]ccc23)CC1 [Capivasertib] + CCN(CCO)CCCOc1ccc2c(Nc3cc(CC(=O)Nc4cccc(F)c4)[nH]n3)ncnc2c1 [AZD2811] (first compound max 10 µM, 7x7, partner max 1 µM) | 0.224 | 0.344 | 0.49 | 0.0027 | -0.0466 | 0.002 | -0.0068 | 0.016 | -0.0125 | -0.0009 | -0.0146 | 0.0084 | -0.0168 | -0.017 | 0.0291 | -0.0591 | -0.0413 | -0.0799 | -0.0667 | 0.0165

Source: the supplement of paper PMC11061612
